# Test results from US20090306051A1, “Methods and compositions for the treatment of epilepsy, seizure disorders, and other CNS disorders” (priority 2004, published 2009).
# Read-outs that look alike come from different tables or passages of the source.
# Key:
# [1] = Release profile (cumulative fraction released from formulation matrix to serum or gut environment); assay type: physicochemical
# mouse electroshock model = test: Dose ranging study in seizure model (mouse electroshock model); assay type: in vivo; settings: seizure model (e.g., mouse electroshock model)
# Text: An isobolic experiment ensues where the drugs are combined in fractions of their EDXXs to add up to ED100 (i.e., ED50:ED50, ED25:ED75, etc.). The plot of the data is constructed. The experiment points that lie below the straight line between the ED50 points on the graph are indicative of synergy, points on the line are indicative of additive effects, and points above the line are indicative of inhibitory effects. The point of maximum deviation from the isobolic line is the optimal ratio. This is the optimal steady state ratio (Cratio,ss) and is adjusted based upon the component half-lives. Similar protocols may be applied in a wide variety of validated animal models.
# [2] = FIG. 2A, IR administration (memantine 20 mg bid, lamotrigine 200 mg qd); cited from earlier work
# [3] = cited from earlier work; for T½: as printed in head of release profile table, Example 3
Structure (SMILES),cum. fraction ([1]; Time 1),cum. fraction ([1]; Time 2),cum. fraction ([1]; Time 4),cum. fraction ([1]; Time 8),cum. fraction ([1]; Time 12),cum. fraction ([1]; Time 16),cum. fraction ([1]; Time 20),cum. fraction ([1]; Time 24),ED50 (mouse electroshock model),Tmax [2],T½ [3],T½ [2],Human PK (t½) ([3]; humans),Tmax ([3]; humans),Human PK (t½) in hrs ([3]; humans)
"CC12CC3CC(C)(C1)CC(N)(C3)C2 [Memantine, 1-amino-3,5-dimethyladamantane]",0.2,0.3,0.4,0.5,0.6,0.7,0.8,0.9,approximately 12 μM,3 h,MEMANTINE T½ = 60 hrs,–,–,–,–
Nc1nnc(-c2cccc(Cl)c2Cl)c(N)n1 [Lamotrigine],–,–,–,–,–,–,–,–,–,2 h,–,12 h,12 h,2 h,–
NCC1(CC(=O)O)CCCCC1 [Gabapentin],–,–,–,–,–,–,–,–,–,–,–,–,6 h,3 h,–
NS(=O)(=O)Cc1noc2ccccc12 [Zonisamide],0.2,0.3,0.4,0.5,0.6,0.7,0.8,0.9,–,–,ZONISAMIDE T½ = 60 hrs,–,63 h,4 h,–
CC1(C)O[C@@H]2[C@@H](CO[C@@]3(COS(N)(=O)=O)OC(C)(C)O[C@@H]23)O1 [Topiramate],–,–,–,–,–,–,–,–,approximately 5 μM,–,–,–,21 h,2 h,–
NC(=O)N1c2ccccc2CC(=O)c2ccccc21 [Oxcarbazepine],–,–,–,–,–,–,–,–,–,–,–,–,–,4.5 h,2 hr for hrs
